{"source": "PubChem BioAssay (NCI)", "test_in_all_cases": "DTP human tumour cell line panel, 48 h", "key": {"HOP-62 NSCLC": {"system": "HOP-62 NSCLC"}, "RPMI-8226 leukemia": {"system": "RPMI-8226 leukemia"}, "NCI-H23 lung": {"system": "NCI-H23 lung"}, "T-47D breast": {"system": "T-47D breast"}, "SNB-75 CNS": {"system": "SNB-75 CNS"}, "HT29 colon": {"system": "HT29 colon"}, "OVCAR-8 ovarian": {"system": "OVCAR-8 ovarian"}, "PC-3 prostate": {"system": "PC-3 prostate"}, "SF-268 CNS": {"system": "SF-268 CNS"}, "COLO 205 colon": {"system": "COLO 205 colon"}, "HCT-116 colon": {"system": "HCT-116 colon"}, "BT-549 breast": {"system": "BT-549 breast"}, "MCF7 breast": {"system": "MCF7 breast"}, "SR leukemia": {"system": "SR leukemia"}, "HOP-92 NSCLC": {"system": "HOP-92 NSCLC"}, "IGROV1 ovarian": {"system": "IGROV1 ovarian"}, "SK-MEL-5 melanoma": {"system": "SK-MEL-5 melanoma"}, "SW-620 colon": {"system": "SW-620 colon"}, "RXF 393 renal": {"system": "RXF 393 renal"}, "HS 578T breast": {"system": "HS 578T breast"}, "786-0 renal": {"system": "786-0 renal"}, "NCI/ADR-RES ovarian": {"system": "NCI/ADR-RES ovarian"}, "MDA-MB-435": {"system": "MDA-MB-435"}, "SK-MEL-28 melanoma": {"system": "SK-MEL-28 melanoma"}, "SF-539 CNS": {"system": "SF-539 CNS"}, "TK-10 renal": {"system": "TK-10 renal"}, "NCI-H460 lung": {"system": "NCI-H460 lung"}, "HCC-2998 colon": {"system": "HCC-2998 colon"}}, "note": "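Protocol summary: plate cells (96-well), add compound at 5 concentrations, incubate 48 h, interpolate endpoints linearly. GI50 marks 50% less growth. At the TGI there is no net growth.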"}
{"smiles": "Cn1ccnc1C(=O)/C=C/C=C/c1ccc(C(=O)Nc2ccc(F)cc2)cc1", "values": [{"measurement": "GI50", "setting": "HOP-62 NSCLC", "result": 8.47, "unit": "µM"}, {"measurement": "TGI", "setting": "HOP-62 NSCLC", "result": "> 33.3", "unit": "µM"}, {"measurement": "GI50", "setting": "RPMI-8226 leukemia", "result": 0.699, "unit": "µM"}, {"measurement": "TGI", "setting": "RPMI-8226 leukemia", "result": 2.27, "unit": "µM"}, {"measurement": "GI50", "setting": "NCI-H23 lung", "result": 1.04, "unit": "µM"}, {"measurement": "TGI", "setting": "NCI-H23 lung", "result": 4.46, "unit": "µM"}, {"measurement": "GI50", "setting": "T-47D breast", "result": 2.01, "unit": "µM"}, {"measurement": "TGI", "setting": "T-47D breast", "result": "> 33.3", "unit": "µM"}, {"measurement": "GI50", "setting": "SNB-75 CNS", "result": 1.18, "unit": "µM"}, {"measurement": "TGI", "setting": "SNB-75 CNS", "result": 29.3, "unit": "µM"}, {"measurement": "GI50", "setting": "HT29 colon", "result": 0.89, "unit": "µM"}, {"measurement": "TGI", "setting": "HT29 colon", "result": 2.49, "unit": "µM"}, {"measurement": "GI50", "setting": "OVCAR-8 ovarian", "result": 1.2, "unit": "µM"}, {"measurement": "TGI", "setting": "OVCAR-8 ovarian", "result": "> 33.3", "unit": "µM"}, {"measurement": "GI50", "setting": "PC-3 prostate", "result": 1.26, "unit": "µM"}, {"measurement": "TGI", "setting": "PC-3 prostate", "result": "> 33.3", "unit": "µM"}, {"measurement": "GI50", "setting": "SF-268 CNS", "result": 1.54, "unit": "µM"}, {"measurement": "TGI", "setting": "SF-268 CNS", "result": "> 33.3", "unit": "µM"}, {"measurement": "GI50", "setting": "COLO 205 colon", "result": 5.61, "unit": "µM"}, {"measurement": "TGI", "setting": "COLO 205 colon", "result": "> 33.3", "unit": "µM"}, {"measurement": "GI50", "setting": "HCT-116 colon", "result": 0.666, "unit": "µM"}, {"measurement": "TGI", "setting": "HCT-116 colon", "result": 1.57, "unit": "µM"}, {"measurement": "GI50", "setting": "BT-549 breast", "result": 1.32, "unit": "µM"}, {"measurement": "TGI", "setting": "BT-549 breast", "result": 15.1, "unit": "µM"}, {"measurement": "GI50", "setting": "MCF7 breast", "result": 0.917, "unit": "µM"}, {"measurement": "TGI", "setting": "MCF7 breast", "result": "> 33.3", "unit": "µM"}, {"measurement": "GI50", "setting": "SR leukemia", "result": 0.468, "unit": "µM"}, {"measurement": "TGI", "setting": "SR leukemia", "result": "> 33.3", "unit": "µM"}, {"measurement": "GI50", "setting": "HOP-92 NSCLC", "result": 3.14, "unit": "µM"}, {"measurement": "TGI", "setting": "HOP-92 NSCLC", "result": 20.5, "unit": "µM"}, {"measurement": "GI50", "setting": "IGROV1 ovarian", "result": 0.846, "unit": "µM"}, {"measurement": "TGI", "setting": "IGROV1 ovarian", "result": 2.61, "unit": "µM"}, {"measurement": "GI50", "setting": "SK-MEL-5 melanoma", "result": 2.65, "unit": "µM"}, {"measurement": "TGI", "setting": "SK-MEL-5 melanoma", "result": 12, "unit": "µM"}, {"measurement": "GI50", "setting": "SW-620 colon", "result": 0.796, "unit": "µM"}, {"measurement": "TGI", "setting": "SW-620 colon", "result": 2.04, "unit": "µM"}, {"measurement": "GI50", "setting": "RXF 393 renal", "result": 0.711, "unit": "µM"}, {"measurement": "TGI", "setting": "RXF 393 renal", "result": 1.92, "unit": "µM"}, {"measurement": "GI50", "setting": "HS 578T breast", "result": 2.27, "unit": "µM"}, {"measurement": "TGI", "setting": "HS 578T breast", "result": "> 33.3", "unit": "µM"}, {"measurement": "GI50", "setting": "786-0 renal", "result": 0.778, "unit": "µM"}, {"measurement": "TGI", "setting": "786-0 renal", "result": 1.88, "unit": "µM"}, {"measurement": "GI50", "setting": "NCI/ADR-RES ovarian", "result": 2.02, "unit": "µM"}, {"measurement": "TGI", "setting": "NCI/ADR-RES ovarian", "result": "> 33.3", "unit": "µM"}, {"measurement": "GI50", "setting": "MDA-MB-435", "result": 1.07, "unit": "µM"}, {"measurement": "TGI", "setting": "MDA-MB-435", "result": 4.45, "unit": "µM"}, {"measurement": "GI50", "setting": "SK-MEL-28 melanoma", "result": 2.41, "unit": "µM"}, {"measurement": "TGI", "setting": "SK-MEL-28 melanoma", "result": "> 33.3", "unit": "µM"}, {"measurement": "GI50", "setting": "SF-539 CNS", "result": 0.858, "unit": "µM"}, {"measurement": "TGI", "setting": "SF-539 CNS", "result": 2.44, "unit": "µM"}, {"measurement": "GI50", "setting": "TK-10 renal", "result": 27.7, "unit": "µM"}, {"measurement": "TGI", "setting": "TK-10 renal", "result": "> 33.3", "unit": "µM"}, {"measurement": "GI50", "setting": "NCI-H460 lung", "result": 1.94, "unit": "µM"}, {"measurement": "TGI", "setting": "NCI-H460 lung", "result": 10.6, "unit": "µM"}, {"measurement": "GI50", "setting": "HCC-2998 colon", "result": 2.61, "unit": "µM"}, {"measurement": "TGI", "setting": "HCC-2998 colon", "result": 8.77, "unit": "µM"}]}
